According to ChEMBL document CHEMBL2396593, “Targeting mutant KRAS for anticancer therapeutics: a review of novel small molecule modulators” (J Med Chem, 2013):

What was measured:
[1] = Inhibition of cRaf/MEK/ERK (unknown origin); set-up: species or system Homo sapiens
[2] = target: T1, Dual specificity mitogen-activated protein kinase kinase 1 (Homo sapiens, UniProt Q02750); assay: Non-competitive inhibition of MEK1 (unknown origin) kinase activity using fluorescent peptide as substrate by fluorescence assay in presence of ATP
[3] = Inhibition of MEK/ERK (unknown origin); set-up: species or system Homo sapiens
[4] = target: RAF proto-oncogene serine/threonine-protein kinase (Homo sapiens, UniProt P04049); assay: Inhibition of cRAF (unknown origin) by Caliper assay
[5] = target: T1, Dual specificity mitogen-activated protein kinase kinase 1; assay: Inhibition of MEK1 (unknown origin)
Mus musculus [6] = assay: Inhibition of MEK1-mediated ERK phosphorylation in human LOX cells xenografted in nude mouse assessed as plasma concentration required for inhibition at 100 mg/kg, po administered as single dose measured after 1 to 12 hrs by Western blot analysis; assay type: functional, organism-based; set-up: dose 100 mg/kg, route oral
Mus musculus [7] = assay: Inhibition of MEK1-mediated ERK phosphorylation in human HT-29 cells xenografted in nude mouse assessed as plasma concentration required for inhibition at 100 mg/kg, po administered as single dose measured after 1 to 12 hrs by Western blot analysis; assay type: functional, organism-based; set-up: dose 100 mg/kg, route oral; details: HT-29, Plasma
[8] = test system: GTPase KRas (Homo sapiens), P01116 [G12D]; assay: Binding affinity to KRAS G12D mutant (unknown origin)
[9] = Inhibition of yeast Rce1p using yeast a-factor mating pheromone substrate; set-up: species or system Saccharomyces cerevisiae
[10] = Inhibition of human Rce1p using quenched fluorogenic substrate by fluorescence assay
[11] = Cytotoxicity against human NCI-H2887 cells by SRB assay; assay type: functional, cell-based
[12] = Cytotoxicity against human T29Kt1 cells by SRB assay
[13] = Cytotoxicity against human H460 cells by SRB assay; assay type: functional, cell-based; details: NCI-H460
[14] = Antitumor activity against human H460 cells xenograft model assessed as increase in host survival at 100 mg/kg, ip relative to solvent control (reference value: 24 days); assay type: functional, NCI-H460; details: route intraperitoneal
A549 = assay: Cytotoxicity against human A549 cells by SRB assay; assay type: functional, cell-based
[15] = Antitumor activity against human H460 cells xenograft model assessed as tumor growth inhibition at 100 mg/kg, ip relative to solvent control; assay type: functional; details: NCI-H460, ip, route intraperitoneal, read-out: TGI
NCI-H2122 = assay: Cytotoxicity against human NCI-H2122 cells by SRB assay; assay type: functional, cell-based
DLD-1 [16] = assay: Selectivity ratio of IC50 for mutant KRAS allele-deficient human DLD1 cells to IC50 for human DLD1 cells harboring mutant KRAS; assay type: functional
DLD-1 [17] = assay: Cytotoxicity against mutant KRAS allele-deficient human DLD1 cells; assay type: functional, cell-based
DLD-1 [18] = assay: Cytotoxicity against human DLD1 cells harboring mutant KRAS; assay type: functional, cell-based
GTPase KRas [19] = target: T2, GTPase KRas (Homo sapiens, UniProt P01116); assay: Inhibition of full-length human KRas4B (amino acids 1 to 188)-SOS interaction assessed as inhibition of SOS-mediated nucleotide release activity
GTPase KRas [20] = target: T2, GTPase KRas; assay: Inhibition of full-length human KRas4B (amino acids 1 to 188)-SOS interaction assessed as inhibition of nucleotide exchange activity
MEF [21] = assay: Antitumor activity against MEF harboring KRAS G12D mutant allografted in p53-null mouse assessed as reduction in tumor volume relative to control; assay type: functional; set-up: scale not given: the % may be the effect or the level left
MEF [22] = assay: Antitumor activity against MEF harboring KRAS G12D mutant allografted in p53-null mouse assessed as reduction in tumor weight relative to control; assay type: functional; set-up: scale not given: the % may be the effect or the level left
MEF [23] = assay: Cytotoxicity against MEF harboring KRAS G12D mutant by ATP-based cell viability assay; assay type: functional; details: Mus musculus
DLD-1 [24] = assay: Antiproliferative activity against human DLD1 cells expressing KRAS mutant at 25 nM; assay type: functional

Sequence of GTPase KRas (Homo sapiens), P01116 [G12D] (P01116 whole entry G12D, looked up): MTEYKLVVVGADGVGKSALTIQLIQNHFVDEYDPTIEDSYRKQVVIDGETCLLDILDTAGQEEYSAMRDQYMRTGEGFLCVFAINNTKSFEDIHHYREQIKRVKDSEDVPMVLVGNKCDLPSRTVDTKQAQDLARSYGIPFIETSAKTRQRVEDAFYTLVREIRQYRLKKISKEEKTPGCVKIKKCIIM
T2 sequence (P01116 whole entry, the tested form may be a part): as the sequence (P01116 whole entry G12D, looked up) above, with D12G counted along it
T1 sequence (Q02750 whole entry): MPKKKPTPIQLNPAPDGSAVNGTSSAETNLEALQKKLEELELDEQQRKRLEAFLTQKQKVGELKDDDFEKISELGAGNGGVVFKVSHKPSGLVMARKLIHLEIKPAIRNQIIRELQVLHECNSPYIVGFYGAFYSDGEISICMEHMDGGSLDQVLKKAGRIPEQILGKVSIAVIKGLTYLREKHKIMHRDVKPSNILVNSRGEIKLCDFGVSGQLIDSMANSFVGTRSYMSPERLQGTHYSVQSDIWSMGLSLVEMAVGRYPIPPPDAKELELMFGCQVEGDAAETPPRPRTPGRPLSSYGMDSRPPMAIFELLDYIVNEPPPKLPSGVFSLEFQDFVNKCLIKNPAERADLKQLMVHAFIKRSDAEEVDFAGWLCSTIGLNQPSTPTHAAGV
Sequence of RAF proto-oncogene serine/threonine-protein kinase (P04049 whole entry): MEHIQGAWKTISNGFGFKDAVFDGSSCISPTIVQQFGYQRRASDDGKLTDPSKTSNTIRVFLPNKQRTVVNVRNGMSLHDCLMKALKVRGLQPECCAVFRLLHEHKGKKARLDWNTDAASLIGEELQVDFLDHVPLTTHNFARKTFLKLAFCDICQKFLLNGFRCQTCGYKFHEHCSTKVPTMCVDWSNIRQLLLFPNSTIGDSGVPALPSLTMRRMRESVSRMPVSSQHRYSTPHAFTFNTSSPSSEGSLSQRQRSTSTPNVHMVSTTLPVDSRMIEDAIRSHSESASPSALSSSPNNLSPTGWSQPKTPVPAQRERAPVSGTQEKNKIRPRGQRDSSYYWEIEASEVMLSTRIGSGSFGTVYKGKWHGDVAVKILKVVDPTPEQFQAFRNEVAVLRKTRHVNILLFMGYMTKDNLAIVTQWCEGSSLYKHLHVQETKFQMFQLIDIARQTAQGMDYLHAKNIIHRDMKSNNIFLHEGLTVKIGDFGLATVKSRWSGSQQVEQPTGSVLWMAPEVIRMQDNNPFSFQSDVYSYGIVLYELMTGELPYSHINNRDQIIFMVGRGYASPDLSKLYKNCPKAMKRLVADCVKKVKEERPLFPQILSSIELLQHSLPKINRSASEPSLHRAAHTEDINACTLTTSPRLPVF

Q: With CCC(=O)c1csc(NC(=O)[C@H]([C@@H](C)c2ccccc2)N2C(=O)N[C@H](c3ccc(OCCO)cc3)C2=O)n1 as the compound, how does the Ki [1] read?
A: 53 nM

Q: And the IC50 [2]?
A: 23 nM

Q: What about the Ki [3] of the same compound?
A: 184 nM

Q: What about the Ki [4] of the same compound?
A: > 50000 nM

Q: For C[C@H](CO)COc1ccc([C@H]2NC(=O)N([C@H](C(=O)Nc3ccc(I)cc3F)[C@@H](C)c3ccccc3)C2=O)cc1, which IC50 [5] is on record?
A: 25 nM

Q: What about the EC50 (Mus musculus [6]) of the same compound?
A: 1360 nM

Q: What about the EC50 (Mus musculus [7]) of the same compound?
A: 3350 nM

Q: With Cc1[nH]c2ccccc2c1Cc1nc2ccccc2[nH]1 as the compound, how does the Activity [8] read?
A: 1.3 mM

Q: Which IC50 [9] does the source give for NC(=O)c1nnn(Cc2cc(Cl)c(C(=O)c3ccc(Cl)cc3)c(Cl)c2)c1N [CARBOXYAMIDOTRIAZOLE] here?
A: 6000 nM

Q: And the IC50 [10]?
A: 400 nM

Q: Which results are given for O=Cc1cn(Cc2ccc(Cl)cc2)c2ccccc12?
A: IC50 [11]: ≤ 3000 nM; IC50 [12]: 4810 nM; IC50 [13]: ≤ 3000 nM; Survival [14]: 32 days; IC50 (A549): ≤ 3000 nM; inhibition in vivo at 100 mg/kg [15]: 75.4%; IC50 (NCI-H2122): ≤ 3000 nM

Q: Which IC50 [9] does the source give for CCCC(c1cc(C(C)(C)C)c(O)cc1C)c1cc(C(C)(C)C)c(O)cc1C here?
A: 6000 nM

Q: What about the IC50 [10] of the same compound?
A: 400 nM

Q: With CC[C@H](C)[C@H](N)C(=O)Nc1ccc2nc(Cc3c[nH]c4ccccc34)[nH]c2c1 as the compound, how does the Activity [8] read?
A: 0.19 mM

Q: Which “Ratio IC50” value (DLD-1 [16]) does the source give for c1ccc(-c2nn(-c3ccccc3)[n+](-c3ccccc3)n2)cc1 here?
A: 6

Q: What about the IC50 (DLD-1 [17]) of the same compound?
A: 12 µg/mL

Q: And the IC50 (DLD-1 [18])?
A: 2 µg/mL

Q: With Cc1[nH]c2cc(Cl)cc(Cl)c2c1CCN as the compound, how does the IC50 (GTPase KRas [19]) read?
A: 155000 nM

Q: What about the IC50 (GTPase KRas [20]) of the same compound?
A: 342000 nM

Q: Which results are given for C[C@H](CN1CCCC1)C(=O)c1ccc(C(F)(F)F)cc1 [LANPERISONE]?
A: Activity (MEF [21]): 24%; Activity (MEF [22]): 37%; IC50 (MEF [23]): 4000 nM

Q: For CC[C@@H]1C(=O)N(C)c2cnc(Nc3ccc(C(=O)NC4CCN(C)CC4)cc3OC)nc2N1C1CCCC1 [BI-2536], which inhibition at 0.025 µM (DLD-1 [24]) is on record?
A: > 50%

Q: For O=C(O)c1ccc(NC(c2ccccc2)c2ccc3cccnc3c2O)cc1 (stereo unspecified), which IC50 [9] is on record?
A: 6000 nM

Q: And the IC50 [10]?
A: 400 nM
